From ChEMBL document CHEMBL3244418, “Synthesis and central nervous system activity of quinazolones related to 2-methyl-3-(o-tolyl)-4(3H)-quinazolone (methaqualone)” (J Med Chem, 1977)

Assays:
Mus musculus [1] = experiment: Hypnotic activity in ip dosed CFLP mouse assessed as loss of righting reflex; assay type: functional
Mus musculus [2] = experiment: Anticonvulsant activity in ip dosed CFLP mouse assessed as inhibition of maximum electroshock-induced seizure; assay type: functional
Mus musculus [3] = experiment: Hypnotic activity in ip dosed CFLP mouse after 30 mins by rotary drum test; assay type: functional; settings: 0.5 h
Mus musculus [4] = experiment: Anticonvulsant activity in ip dosed CFLP mouse assessed as inhibition of pentylenetetrazole-induced seizure; assay type: functional
Mus musculus [5] = experiment: […] activity in po dosed CFLP mouse assessed as inhibition of benzoquinone-induced writhing; assay type: functional
[6] = Chemical stability of the compound assessed as methaqualone/sulfur/disulfide formation; assay type: physicochemical

Structure (SMILES)	ED50 (Mus musculus [1]) [mg/kg]	ED50 (Mus musculus [2]) [mg/kg]	ED50 (Mus musculus [3]) [mg/kg]	ED50 (Mus musculus [4]) [mg/kg]	ED50 (Mus musculus [5]) [mg/kg]	Stability [6]
Cc1ccccc1-n1c(CF)nc2ccccc2c1=O.Cl	75	14.5	18	16		
Br.Cc1ccc([N+](=O)[O-])cc1-n1c(CSC2=NCCN2)nc2ccccc2c1=O	> 400	100	86	150	> 200	
Br.N=C(N)SCc1nc2ccccc2c(=O)n1-c1ccccc1	200	53	42	> 50		
Cc1ccccc1-n1c(CI)nc2ccccc2c1=O	> 400	> 200	> 200			
Br.O=c1c2ccccc2nc(CSC2=NCCN2)n1-c1ccc(Cl)cc1	> 200	35	47	37.5	> 75	
Br.O=c1c2ccccc2nc(CSC2=NCCN2)n1-c1ccccc1Cl	50	18	12	25		
Br.Cc1c(Cl)cccc1-n1c(CSC2=NCCN2)nc2ccccc2c1=O	80	> 25	> 25	25		
COCc1nc2ccccc2c(=O)n1-c1ccccc1C	300	26	22	100	100	
Cc1ccccc1-n1c(C(F)F)nc2ccccc2c1=O	> 400	> 100	100	50		
Cc1ccccc1-n1c(CSC(N)=O)nc2ccccc2c1=O	400	120	200	56	> 200	
CCCSCc1nc2ccccc2c(=O)n1-c1ccccc1C	> 800	160	100	70	> 200	
Br.N=C(N)SCc1nc2ccccc2c(=O)n1-c1ccccc1Cl	200				90	
Cc1ccccc1-n1c(CSS(=O)(=O)O)nc2ccccc2c1=O	150	82	44	39	> 200	
Br.C/N=C(\NC)SCc1nc2ccccc2c(=O)n1-c1cc([N+](=O)[O-])ccc1C	> 50	> 10	> 10	> 10	> 10	
Cc1ccccc1-n1c(CO)nc2ccccc2c1=O	> 400	135	56	70	> 200	
Cc1ccccc1-n1c(CSC(N)=O)nc2ccccc2c1=O.Cl	35	34	19		200	
Cc1ccccc1-n1c(C)nc2ccccc2c1=O [METHAQUALONE]	96	48	30	14	36	
Br.C/N=C(/NC)SCc1nc2ccccc2c(=O)n1-c1ccccc1Cl	150	30	27	40	200	
Cc1ccccc1-n1c(COC(=O)CCC(=O)O)nc2ccccc2c1=O	> 400	> 200	> 200	150	> 200	
Br.C/N=C(\NC)SCc1nc2ccccc2c(=O)n1-c1ccccc1C	100	25	32	23	51	

Structure (SMILES)	ED50 (Mus musculus [1]) [mg/kg]	ED50 (Mus musculus [2]) [mg/kg]	ED50 (Mus musculus [3]) [mg/kg]	ED50 (Mus musculus [4]) [mg/kg]	ED50 (Mus musculus [5]) [mg/kg]	Stability [6]
COc1ccccc1-n1c(CS)nc2ccccc2c1=O						Unstable
Br.Cc1ccccc1-n1c(CSC2=NCCN2)nc2ccccc2c1=O	60	44	42	24	> 50	
Br.O=c1c2ccccc2nc(CSC2=NCCN2)n1-c1ccccc1F	200	37.5	32	100	90	
Br.C/N=C(\NC)SCc1nc2ccccc2c(=O)n1-c1ccccc1	> 400	40	> 50	50	200	
Br.Cc1ccccc1-n1c(CSC(=N)N)nc2ccccc2c1=O	56	65	35	28	> 50	
Br.Cc1ccc([N+](=O)[O-])cc1-n1c(CSC(=N)N)nc2ccccc2c1=O	> 400				> 200	
CC(=O)OCc1nc2ccccc2c(=O)n1-c1ccccc1C	> 400	120	155	150	200	
Cc1ccccc1-n1c(C(Br)Br)nc2ccccc2c1=O	> 800	> 200	> 200	> 200	> 400	
Br.O=c1c2ccccc2nc(CSC2=NCCN2)n1-c1ccccc1	200	50	> 50	> 50	50	
Cc1ccccc1-n1c(C(F)(F)F)nc2ccccc2c1=O	> 400	> 200	> 200	> 200	> 200	
Br.C/N=C(\NC)SCc1nc2ccccc2c(=O)n1-c1ccccc1F	> 400	45	54	> 50	> 50	
CCCCOCc1nc2ccccc2c(=O)n1-c1ccccc1C	> 400	120	88		> 200	
CCOCc1nc2ccccc2c(=O)n1-c1ccccc1C	300	64	27		> 200	
Br.Cc1ccccc1-n1c(CS/C(N)=N/N)nc2ccccc2c1=O	100	35	15.5	23		
Br.CCCC/N=C(\NCCCC)SCc1nc2ccccc2c(=O)n1-c1ccccc1C	> 100	> 40	40	> 40	200	
CCCOCc1nc2ccccc2c(=O)n1-c1ccccc1C	> 400	> 200		150	> 200	
Br.Cc1c(Cl)cccc1-n1c(CSC(=N)N)nc2ccccc2c1=O	400	42	57		200	
Cc1ccccc1-n1c(CBr)nc2ccccc2c1=O	> 200	> 200	> 200		> 150	
Br.N=C(N)SCc1nc2ccccc2c(=O)n1-c1ccccc1F	400	38	43	75	100	
Br.Cc1ccccc1-n1c(CSC2=NCCCN2)nc2ccccc2c1=O	200	50	39		170	
